Measured values: ChEMBL document CHEMBL1153970, “Characteristic of neuraminidase inhibitory xanthones from Cudrania tricuspidata” (Bioorg Med Chem, 2009)
Values joined by “and” are separate entries in the source; they are usually repeats but may differ in a detail not shown here. Identical values can stand only once.

Tests used:
Sialidase [1] = target: T1, Sialidase (Clostridium perfringens, UniProt P10481); assay: Competitive inhibition of Clostridium perfringens neuraminidase by Lineweaver-Burke plot and Dixon plot
T1 sequence (P10481 whole entry): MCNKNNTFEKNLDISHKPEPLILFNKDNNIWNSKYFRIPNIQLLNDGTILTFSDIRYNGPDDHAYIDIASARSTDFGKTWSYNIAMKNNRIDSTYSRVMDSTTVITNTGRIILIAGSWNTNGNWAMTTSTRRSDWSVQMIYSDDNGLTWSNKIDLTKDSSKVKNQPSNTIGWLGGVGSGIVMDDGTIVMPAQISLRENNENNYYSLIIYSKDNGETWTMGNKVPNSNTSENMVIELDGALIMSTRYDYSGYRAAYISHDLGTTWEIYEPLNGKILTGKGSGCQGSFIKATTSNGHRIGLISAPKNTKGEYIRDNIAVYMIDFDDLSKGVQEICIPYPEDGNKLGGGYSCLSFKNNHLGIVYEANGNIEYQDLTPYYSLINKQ

Sialidase [2] = target: T1, Sialidase; assay: (§1) Inhibition of Clostridium perfringens neuraminidase by fluorimetry
[3] = target: T2, Sialidase (Clostridium perfringens) (UniProt P10481); assay: as §1
T2 sequence (whole entry): T1 sequence (P10481 whole entry)

Sialidase [4] = target: T1, Sialidase; assay: Apparent binding affinity at Clostridium perfringens neuraminidase by fluorimetry; settings: read-out: Ki(app)
[5] = target: T2, Sialidase (Clostridium perfringens); assay: Inhibition of Clostridium perfringens neuraminidase at 200 uM by fluorimetry

SMILES | Ki (Sialidase [1]) | IC50 (Sialidase [2]) | Activity [3] | Ki (Sialidase [4]) | Activity [5] | inhibition [5] [%]
C=CC(C)(C)c1c(O)cc2oc3cc(O)c(O)c(CC=C(C)C)c3c(=O)c2c1O | 58 nM | 80 nM | Dose-dependent effect | 127 nM |  | 
C=CC(C)(C)c1c(O)cc(O)c2c(=O)c3cc(O)c4c(c3oc12)C=CC(C)(C)O4 |  |  |  |  | Dose-dependent effect | 30
O=c1cc(-c2ccc(O)cc2)oc2cc(O)cc(O)c12 [APIGENIN] |  | 17400 nM |  |  |  | 
C=CC(C)(C)c1c(O)cc(O)c2c(=O)c3c(CC=C(C)C)c(O)c(O)cc3oc12 [CUDRATRICUSXANTHONE A] | 136 nM | 245 nM | Dose-dependent effect | 214 nM |  | 
C=CC(C)(C)c1c(OC)cc(O)c2c(=O)c3c(CC=C(C)C)c(O)c(O)cc3oc12 [CUDRAXANTHONE D] | 143 nM and 950 nM | 278 nM and 1270 nM | Dose-dependent effect | 436 nM and 2230 nM |  | 
C=CC(C)(C)c1c(O)cc2oc3c(CC=C(C)C)c(O)c(O)cc3c(=O)c2c1O [CUDRAXANTHONE L] | 138 nM | 228 nM | Dose-dependent effect | 568 nM |  | 
CC(C)=CCc1c(O)c(O)cc2c(=O)c3c(O)c4c(cc3oc12)OC(C)C4(C)C (centres undefined) [CUDRAXANTHONE M] | 98 nM | 186 nM | Dose-dependent effect | 510 nM |  | 
C=CC(C)(C)c1c2c(c(O)c3c(=O)c4ccc(O)c(O)c4oc13)C=CC(C)(C)O2 [MACLURAXANTHONE] | 103 nM | 186 nM | Dose-dependent effect | 477 nM |  | 
O=c1c2cc(O)c(O)cc2oc2cc(O)c([C@@H]3O[C@H](CO)[C@@H](O)[C@H](O)[C@H]3O)c(O)c12 [MANGIFERIN] |  | 16200 nM |  |  |  | 
O=c1c(O)c(-c2ccc(O)c(O)c2)oc2cc(O)cc(O)c12 [QUERCETIN] |  | 2700 nM |  |  |  | 
